The text below walks through data of the supplement of paper PMC11003180.

Holding throughout (assay): drug sensitivity score (DSS) from 5-dose viability curve (DSS (area-based score, 0 = no response)); higher = more sensitive (stronger viability inhibition); extreme values may be limits of the assay
Assay [1] deals with MDCK wild-type - doxycycline. The note with it: doxycycline: none; 72 h. In short, it runs like this: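 Parental MDCK cells without doxycycline were dispensed at 2000 cells/well onto pre-spotted 384-well plates. The plates held an oncology library of 528 drugs at five doses (1-10,000 nM) and were incubated 72 h at 37 °C. Viability was read as CellTiter-Glo luminescence and scaled per plate between vehicle and positive controls. Drug sensitivity scores came from dose-response curve fits in the Breeze pipeline.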

Assay [2] deals with MDCK p60AmotL2-inducible + doxycycline (p60AmotL2 expressing). The note with it: doxycycline: 10 ng/mL; 72 h. The gist of the method: (§1)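 Parental MDCK cells and MDCK cells with a doxycycline-inducible transgene were both grown with doxycycline at 10 ng/mL in the medium before plating, then dispensed at 2000 cells/well into 384-well plates pre-spotted with an oncology library of 528 drugs at five doses (1-10,000 nM). After 72 h at 37 °C, CellTiter-Glo luminescence was recorded and scaled on each plate between vehicle and positive controls. This scaled signal served as the viability readout, and drug sensitivity scores were derived from dose-response curve fits in the Breeze pipeline.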

The subject of assay [3] is MDCK wild-type + doxycycline. The note with it: doxycycline: 10 ng/mL; 72 h. In short, it runs like this: as §1

Molecules are shown by their SMILES.

In the case of `CC(C)(C)C[C@@H]1N[C@@H](C(=O)N[C@H]2CC[C@H](O)CC2)[C@H](c2cccc(Cl)c2F)[C@]12C(=O)Nc1cc(Cl)ccc12`, the results for the drug sensitivity score in assay [1], in assay [2] and in assay [3] were 2.9, 7.2 and 4.7, respectively.

Turning to `CC(C)(C)c1cc(NC(=O)Nc2ccc(Oc3ccnc4[nH]c(=O)cnc34)cc2F)n(-c2ccccc2)n1`, the drug sensitivity score in assay [1] was found to be 4.9; in assay [2], 7; in assay [3], 5.1.

For the molecule `CC(C)Oc1ccc(C(=O)N[C@H](CNC(=O)CN(C)C)Cc2ccc(-c3cn4cccc([C@H](C)O)c4n3)cc2)cc1Cl`, the drug sensitivity score in assay [1] came out at 10.7; in assay [2] it was 15.8; in assay [3] it was 12.8.

Regarding `CC[C@@H]1[C@H](F)C(=O)N[C@@H]1COc1nccc2cc(C(N)=O)c(OC)cc12`, the figures for the drug sensitivity score in assay [1], in assay [2] and in assay [3] were 0, 0.2 and 0.8, respectively.

Consider `CCc1cncnc1N1CCN(Cc2nc3ccc(C(F)(F)F)cc3[nH]2)CC1`, for which the drug sensitivity score in assay [1], in assay [2] and in assay [3] was 0 each time.

`CCn1c(-c2nonc2N)nc2c(C#CC(C)(C)O)ncc(OC[C@H]3CCCNC3)c21`: the drug sensitivity score in assay [1] was determined as 0; in assay [2] it was 0.2; in assay [3], 0.

Turning to `CCn1c(-c2nonc2N)nc2cnc(Oc3cccc(NC(=O)c4ccc(OCCN5CCOCC5)cc4)c3)cc21`, the drug sensitivity score in assay [1] is 0.8; in assay [2], 4; in assay [3], 2.6.

In the case of `CCn1cc(-c2ccnc3[nH]c(-c4cccc(CN(C)C)c4)cc23)c(-c2ccc(NC(=O)N(C)C)cc2)n1`, the drug sensitivity score in assay [1] is 0.4; in assay [2] it was 7.1; in assay [3], 1.9.

In the case of `CN(c1ncccc1CNc1nc(Nc2ccc3c(c2)CC(=O)N3)ncc1C(F)(F)F)S(C)(=O)=O`, the figures for the drug sensitivity score in assay [1], in assay [2] and in assay [3] were 4.4, 6 and 5.8, respectively.

Consider `CNC(=O)c1ccc(C)c(-n2c(C)cc(OCc3ccc(F)cc3F)c(Br)c2=O)c1`, for which the drug sensitivity score in assay [1], in assay [2] and in assay [3] was 0 each time.

`CNC(=O)c1ccccc1Nc1nc(Nc2ccc3c(c2OC)CCC[C@H](N2CCN(CCO)CC2)C3)ncc1Cl`: the drug sensitivity score in assay [1] is 6.8; in assay [2], 8.8; in assay [3], 6.2.

As to `CNS(=O)(=O)Nc1nccc(Cc2c(C)c3ccc(Oc4ncccn4)cc3oc2=O)c1F`, the drug sensitivity score in assay [1] was 0; in assay [2], 2.3; in assay [3], 0.5.

Consider `CNc1nc(-c2ccc3c(N)n[nH]c3c2)cc(N2C[C@@H](C(=O)NC3CCCCC3)CC[C@H]2C)n1`, for which the drug sensitivity score in assay [1], in assay [2] and in assay [3] was 0 throughout.

Consider `CNc1ncc2cc(-c3cc(NC(=O)NCCC(C)(C)C)c(F)cc3C)c(C)nc2n1`, for which the values for the drug sensitivity score in assay [1], in assay [2] and in assay [3] were 2.8, 9 and 5.2, respectively.

Take `CONC(=O)c1ccccc1Nc1cc(Nc2cc(C)nn2C(C)C)ncc1Cl`: the drug sensitivity score in assay [1] amounted to 0; in assay [2] it was 1.2; in assay [3] it was 0.

For `CO[C@@H](C)Cn1c(=O)n(C)c2cnc3ccc(-c4cncc(C(C)(C)O)c4)cc3c21`, the drug sensitivity score was determined as 8.2 in assay [1], 12.8 in assay [2] and 9.1 in assay [3].

Take `COc1cc2ncnc(Oc3cccc(NC(=O)Nc4cc(C(C)(C)C(F)(F)F)on4)c3)c2cc1OC`: the drug sensitivity score in assay [1], in assay [2] and in assay [3] was 0 in each case.

`COc1ccc(Cn2ccc3ccc(C(=O)NO)cc32)cc1`: the drug sensitivity score in assay [1] is 0; in assay [2], 2.1; in assay [3], 3.1.

`COc1ccc2[nH]cc(/C=C3\C(=O)Nc4ccc(NC(=O)CCN5CCCCC5)cc43)c2c1`: the drug sensitivity score in assay [1] worked out at 6; in assay [2], 9.4; in assay [3] it was 7.3.

Take `C[C@@H](Oc1cc(-n2cnc3ccc(CN4CCN(C)CC4)cc32)sc1C(N)=O)c1ccccc1C(F)(F)F`: the results for the drug sensitivity score in assay [1], in assay [2] and in assay [3] were 29.5, 32.1 and 35.1, respectively.

With `C[C@@H](Oc1ccc2[nH]nc(/C=C/c3cnn(CCO)c3)c2c1)c1c(Cl)cncc1Cl`, the drug sensitivity score in assay [1] amounted to 7.1; in assay [2] it was 9.3; in assay [3] it was 7.2.

Take `C[C@@H]1CN(CC(=O)Nc2ccc3c(c2)Cc2cccc(-c4cc(=O)cc(N5CCOCC5)o4)c2S3)C[C@H](C)O1`: the drug sensitivity score in assay [1] came to 2.2; in assay [2], 2.4; in assay [3] it was 2.

For the molecule `C[C@H]1Oc2cc(cnc2N)-c2c(nn(C)c2C#N)CN(C)C(=O)c2ccc(F)cc21`, the drug sensitivity score in assay [1] was 0.1; in assay [2], 2.1; in assay [3] it was 0.

Consider `Cc1c(-c2c(-c3ccc(F)o3)sc3ncnc(O[C@H](Cc4ccccc4OCc4ccnn4CC(F)(F)F)C(=O)O)c23)ccc(OCCN2CCN(C)CC2)c1Cl`, for which the drug sensitivity score in assay [1], in assay [2] and in assay [3] was 0 in each case.

For `Cc1c(Cn2c(C)nc3c(C(=O)O)cc(N4CCOCC4)cc32)cccc1C(F)(F)F`, the drug sensitivity score in assay [1], in assay [2] and in assay [3] was 0 throughout.

With `Cc1ccc(C(=O)N(CCCN)[C@@H](c2oc3cc(Cl)ccc3c(=O)c2Cc2ccccc2)C(C)C)cc1`, the drug sensitivity score worked out at 15.3 in assay [1], 8.8 in assay [2] and 5.8 in assay [3].

Turning to `Cc1cccc(CC(=O)N2CCc3c2ccc(-c2cn(C)c4ncnc(N)c24)c3F)n1`, the drug sensitivity score in assay [1], in assay [2] and in assay [3] was 0 each time.

Turning to `Cc1nc(Nc2n[nH]c3c2CN(C(=O)N[C@H](CN(C)C)c2ccccc2)C3(C)C)c2sccc2n1`, the drug sensitivity score in assay [1] was 12.4; in assay [2], 22.1; in assay [3], 18.

As to `Cc1ncc(Cl)cc1NCc1ccc(C(=O)N[C@@H](CC2CCCC2)C(=O)NC2CC2)s1`, the drug sensitivity score in assay [1], in assay [2] and in assay [3] was 0 throughout.

Turning to `Cn1cc(-c2ccc(F)c(C(F)(F)F)c2)nc1C1CCN(c2ncnc3[nH]ncc23)CC1`, the figures for the drug sensitivity score in assay [1], in assay [2] and in assay [3] were 0, 3 and 0, respectively.

For the molecule `Cn1cc(C2=Nc3cc(NC(=O)C(N)C4CCCCC4)cc4c3C2=CNNC4=O)cn1` (stereo not drawn), the drug sensitivity score in assay [1] amounted to 0; in assay [2], 1.1; in assay [3] it was 0.

Turning to `NCC(=O)Nc1ccc(-n2nc(C(F)(F)F)cc2-c2ccc3c(ccc4ccccc43)c2)cc1`, the drug sensitivity score in assay [1], in assay [2] and in assay [3] was 0 each time.

Turning to `Nc1nccc(-c2c(-c3ccc(F)cc3)ncn2C2CCCCC2)n1`, the results for the drug sensitivity score in assay [1], in assay [2] and in assay [3] were 0.7, 2.3 and 0.5, respectively.

On to `Nc1ncnc2c1c(COc1cccc(Cl)c1)nn2C1CCOCC1`, for which the drug sensitivity score in assay [1] worked out at 0; in assay [2] it was 0.5; in assay [3] it was 0.

Regarding `O=C(NC[C@H](O)CN1CCc2ccccc2C1)c1cc(NC2COC2)ncn1`, the drug sensitivity score in assay [1] came to 0; in assay [2], 0.2; in assay [3] it was 0.

With `O=C(NCc1ccncc1)C12CC3CC(C1)CC(c1ccc(Cl)cc1)(C3)C2`, the drug sensitivity score in assay [1] is 2.4; in assay [2], 6.4; in assay [3], 4.3.

As to `O=C(NOC[C@H](O)CO)c1ccc(F)c(F)c1Nc1ccc(I)cc1F`, the figures for the drug sensitivity score in assay [1], in assay [2] and in assay [3] were 2.3, 11.9 and 3.9, respectively.

For `O=C(Nc1ccc2[nH]nc(-c3ccncc3)c2c1)[C@@H]1CCN(CC(=O)N2CCN(c3ccc(-c4ncccn4)cc3)CC2)C1`, the drug sensitivity score in assay [1] is 3.5; in assay [2] it was 10.7; in assay [3], 6.7.

With `O=C(O)c1ccc(-c2c[nH]c3ncc(-c4ccccc4)cc23)cc1C1CCCC1`, the drug sensitivity score in assay [1] worked out at 0; in assay [2], 0.8; in assay [3] it was 1.

`O=C(O)c1ccc(CN2CCC(CN[C@@H]3C[C@H]3c3ccccc3)CC2)cc1`: the drug sensitivity score in assay [1], in assay [2] and in assay [3] was 0 throughout.

For the molecule `O=C1Cc2cc(C(=O)NC3C[C@H]4CC[C@@H](C3)N4S(=O)(=O)CC3CCN(CCCC(F)(F)F)CC3)c(Cl)cc2N1` (stereo partly drawn), the drug sensitivity score in assay [1], in assay [2] and in assay [3] was 0 throughout.
